# Test results: patent US10829481B2, “Benzimidazole derivatives as modulators of ROR-gamma” (Vitae Pharmaceuticals, LLC, priority 2016, dated 2020)
# Tests used:
# [1] = biological target: recombinant RORγ Ligand Binding Domain (LBD) protein (Homo sapiens (Human), UniProt P51449); test: Radio-Ligand RORγ Binding Assay (Assay 1); details: competition with 25-hydroxy [26,27-3H]-cholesterol, SPA
# Summary of the method: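 His-GST-fused RORγ ligand-binding domain (24 nM solution) competed between compounds and tritiated 25-hydroxycholesterol (8.6 nM solution), read by SPA after brief rt incubations in pH 7.4 HEPES/glycerol/detergent buffer. Four-parameter curve fitting gave IC50 at inflection, converted to Ki using radioligand concentration and KD.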
# [2] = biological target: full-length RORγt in Jurkat cells (Homo sapiens (Human), UniProt P51449); test: RORγt 5×RORE Assay in Jurkat Cells (Assay 2); assay type: cell-based; details: 5×RORE Nanoluc luciferase reporter
# full-length RORγt in Jurkat cells, sequence (P51449 other isoform, or with tags, fused parts or gaps): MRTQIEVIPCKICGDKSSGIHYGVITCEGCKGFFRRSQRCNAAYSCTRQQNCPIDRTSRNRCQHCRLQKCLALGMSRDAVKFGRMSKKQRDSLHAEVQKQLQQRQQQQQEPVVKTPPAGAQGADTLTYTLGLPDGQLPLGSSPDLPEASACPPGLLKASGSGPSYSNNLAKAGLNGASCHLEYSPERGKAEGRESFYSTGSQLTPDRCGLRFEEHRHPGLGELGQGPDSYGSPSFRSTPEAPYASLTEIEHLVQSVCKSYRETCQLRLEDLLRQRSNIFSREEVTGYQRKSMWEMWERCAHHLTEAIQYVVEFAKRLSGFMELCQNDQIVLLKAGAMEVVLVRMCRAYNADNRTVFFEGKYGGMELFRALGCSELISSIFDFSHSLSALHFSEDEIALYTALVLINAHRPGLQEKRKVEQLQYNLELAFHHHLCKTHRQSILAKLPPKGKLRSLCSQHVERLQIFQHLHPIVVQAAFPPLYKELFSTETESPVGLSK
# recombinant RORγ Ligand Binding Domain (LBD) protein, sequence (P51449 269-508): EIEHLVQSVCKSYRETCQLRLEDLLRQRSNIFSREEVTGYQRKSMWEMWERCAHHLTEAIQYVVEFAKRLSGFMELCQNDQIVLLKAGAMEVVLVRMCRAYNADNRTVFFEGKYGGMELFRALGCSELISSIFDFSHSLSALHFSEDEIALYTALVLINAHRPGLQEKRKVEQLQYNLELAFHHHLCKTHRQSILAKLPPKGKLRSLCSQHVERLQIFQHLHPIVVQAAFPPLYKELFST
Molecule,Ki [1],IC50 [2]
"CCS(=O)(=O)c1ccc(CNC(=O)c2ccc3c(c2)nc(C(F)(F)F)n3Cc2cccc3cnn(C)c23)cc1 [I-137, N-(4-(ethylsulfonyl)benzyl)-1-((1-methyl-1H-indazol-7-yl)methyl)-2-(trifluoromethyl)-1H-benzo[d]imidazole-5-carboxamide]",< 100 nM,< 100 nM
"CCS(=O)(=O)c1ccc(CNC(=O)c2ccc3c(c2)nc(C(F)(F)F)n3Cc2nc(C)cc(C(F)(F)F)n2)cc1 [I-138, N-(4-(ethylsulfonyl)benzyl)-1-((4-methyl-6-(trifluoromethyl)pyrimidin-2-yl)methyl)-2-(trifluoromethyl)-1H-benzo[d]imidazole-5-carboxamide]",< 100 nM,100 to 1000 nM
"CCS(=O)(=O)c1ccc(CNC(=O)c2ccc3c(c2)nc(C(F)(F)F)n3Cc2cccc3cn(C)nc23)cc1 [I-139, N-(4-(ethylsulfonyl)benzyl)-1-((2-methyl-2H-indazol-7-yl)methyl)-2-(trifluoromethyl)-1H-benzo[d]imidazole-5-carboxamide]",< 100 nM,< 100 nM
"CCS(=O)(=O)c1ccc(CNC(=O)c2ccc3c(c2)nc(C(F)(F)F)n3Cc2cccc3c2cnn3C)cc1 [I-141, N-(4-(ethylsulfonyl)benzyl)-1-((1-methyl-1H-indazol-4-yl)methyl)-2-(trifluoromethyl)-1H-benzo[d]imidazole-5-carboxamide]",> 1000 nM,100 to 1000 nM
"CCS(=O)(=O)c1ccc(CNC(=O)c2ccc3c(c2)nc(C(F)(F)F)n3Cc2cccc3nn(C)cc23)cc1 [I-143, N-(4-(ethylsulfonyl)benzyl)-1-((2-methyl-2H-indazol-4-yl)methyl)-2-(trifluoromethyl)-1H-benzo[d]imidazole-5-carboxamide]",< 100 nM,100 to 1000 nM
"CCS(=O)(=O)c1ccc(CNC(=O)c2ccc3c(c2)nc(C(F)(F)F)n3Cc2cccc3ocnc23)cc1 [I-147, 1-(benzo[d]oxazol-4-ylmethyl)-N-(4-(ethylsulfonyl)benzyl)-2-(trifluoromethyl)-1H-benzo[d]imidazole-5-carboxamide]",< 100 nM,100 to 1000 nM
"CCS(=O)(=O)c1ccc(CNC(=O)c2ccc3c(c2)nc(C2CC2)n3Cc2cccc3c2OCCO3)cc1 [I-148, 2-cyclopropyl-1-((2,3-dihydrobenzo[b][1,4]dioxin-5-yl)methyl)-N-(4-(ethylsulfonyl)benzyl)-1H-benzo[d]imidazole-5-carboxamide]",< 100 nM,> 1000 nM
"CCS(=O)(=O)c1ccc(CNC(=O)c2ccc3c(c2)nc(C2CC2)n3[C@H](C)c2cccc3c2OC(F)(F)O3)cc1 [I-149, (R)-2-cyclopropyl-1-(1-(2,2-difluorobenzo[d][1,3]dioxol-4-yl)ethyl)-N-(4-(ethylsulfonyl)benzyl)-1H-benzo[d]imidazole-5-carboxamide]",< 100 nM,< 100 nM
"CCS(=O)(=O)c1ccc(CNC(=O)c2ccc3c(c2)nc(C)n3Cc2ccccc2)cc1 [I-150, 1-benzyl-N-(4-(ethylsulfonyl)benzyl)-2-methyl-1H-benzo[d]imidazole-5-carboxamide]",100 to 1000 nM,> 1000 nM
"CCS(=O)(=O)c1ccc(CNC(=O)c2ccc3c(c2)nc(C(F)(F)F)n3Cc2cccc3nonc23)cc1 [I-151, 1-(benzo[c][1,2,5]oxadiazol-4-ylmethyl)-N-(4-(ethylsulfonyl)benzyl)-2-(trifluoromethyl)-1H-benzo[d]imidazole-5-carboxamide]",< 100 nM,< 100 nM
"CCS(=O)(=O)c1ccc(CNC(=O)c2ccc3c(c2)nc(C(F)(F)F)n3Cc2cccc3ncoc23)cc1 [I-152, 1-(benzo[d]oxazol-7-ylmethyl)-N-(4-(ethylsulfonyl)benzyl)-2-(trifluoromethyl)-1H-benzo[d]imidazole-5-carboxamide]",< 100 nM,< 100 nM
"CCS(=O)(=O)c1ccc(CNC(=O)c2ccc3c(c2)nc(C2CC2)n3Cc2cc(O)cc(OC(F)(F)F)c2)cc1 [I-153, 2-cyclopropyl-N-(4-(ethylsulfonyl)benzyl)-1-(3-hydroxy-5-(trifluoromethoxy)benzyl)-1H-benzo[d]imidazole-5-carboxamide]",< 100 nM,< 100 nM
"CCS(=O)(=O)c1ccc(CNC(=O)c2ccc3c(c2)nc(C2CC2)n3Cc2cccc(O)c2O)cc1 [I-154, 2-cyclopropyl-1-(2,3-dihydroxybenzyl)-N-(4-(ethylsulfonyl)benzyl)-1H-benzo[d]imidazole-5-carboxamide]",< 100 nM,> 1000 nM
"CCS(=O)(=O)c1ccc(CNC(=O)c2ccc3c(c2)nc(C(F)(F)F)n3CC2CCN(c3ncc(F)cn3)CC2)cc1 [I-158, N-(4-(ethylsulfonyl)benzyl)-1-((1-(5-fluoropyrimidin-2-yl)piperidin-4-yl)methyl)-2-(trifluoromethyl)-1H-benzo[d]imidazole-5-carboxamide]",< 100 nM,> 1000 nM
"CCS(=O)(=O)c1ccc(CNC(=O)c2ccc3c(c2)nc(N(C)C)n3Cc2cccc3c2OC(F)(F)O3)cc1 [I-162, 1-((2,2-difluorobenzo[d][1,3]dioxol-4-yl)methyl)-2-(dimethylamino)-N-(4-(ethylsulfonyl)benzyl)-1H-benzo[d]imidazole-5-carboxamide]",< 100 nM,< 100 nM
"O=C(NCC1CCN(S(=O)(=O)CCO)CC1)c1ccc2c(c1)nc(C(F)(F)F)n2Cc1cccc2c1OC(F)(F)O2 [I-163, 1-((2,2-difluorobenzo[d][1,3]dioxol-4-yl)methyl)-N-((1-((2-hydroxyethyl)sulfonyl)piperidin-4-yl)methyl)-2-(trifluoromethyl)-1H-benzo[d]imidazole-5-carboxamide]",< 100 nM,< 100 nM
"CCS(=O)(=O)c1ccc([C@H](CC(=O)O)NC(=O)c2ccc3c(c2)nc(C(F)(F)F)n3Cc2cccc3c2OC(F)(F)O3)cc1 [I-165, (S)-3-(1-((2,2-difluorobenzo[d][1,3]dioxol-4-yl)methyl)-2-(trifluoromethyl)-1H-benzo[d]imidazole-5-carboxamido)-3-(4-(ethylsulfonyl)phenyl)propanoic acid]",< 100 nM,> 1000 nM
"CCS(=O)(=O)c1ccc([C@H](COCC(=O)O)NC(=O)c2ccc3c(c2)nc(C(F)(F)F)n3Cc2cccc3c2OC(F)(F)O3)cc1 [I-166, (R)-2-(2-(1-((2,2-difluorobenzo[d][1,3]dioxol-4-yl)methyl)-2-(trifluoromethyl)-1H-benzo[d]imidazole-5-carboxamido)-2-(4-(ethylsulfonyl)phenyl)ethoxy)acetic acid]",< 100 nM,> 1000 nM
"CCS(=O)(=O)c1ccc([C@H](CC(=O)NC)NC(=O)c2ccc3c(c2)nc(C(F)(F)F)n3Cc2cccc3c2OC(F)(F)O3)cc1 [I-167, (S)-1-((2,2-difluorobenzo[d][1,3]dioxol-4-yl)methyl)-N-(1-(4-(ethylsulfonyl)phenyl)-3-(methylamino)-3-oxopropyl)-2-(trifluoromethyl)-1H-benzo[d]imidazole-5-carboxamide]",< 100 nM,< 100 nM
"CCS(=O)(=O)c1ccc([C@H](CC(N)=O)NC(=O)c2ccc3c(c2)nc(C(F)(F)F)n3Cc2cccc3c2OC(F)(F)O3)cc1 [I-168, (S)-N-(3-amino-1-(4-(ethylsulfonyl)phenyl)-3-oxopropyl)-1-((2,2-difluorobenzo[d][1,3]dioxol-4-yl)methyl)-2-(trifluoromethyl)-1H-benzo[d]imidazole-5-carboxamide]",< 100 nM,< 100 nM
"CNC(=O)CS(=O)(=O)c1ccc(CNC(=O)c2ccc3c(c2)nc(C(F)(F)F)n3Cc2cccc3c2OC(F)(F)O3)cc1 [I-169, 1-((2,2-difluorobenzo[d][1,3]dioxol-4-yl)methyl)-N-(4-((2-(methylamino)-2-oxoethyl)sulfonyl)benzyl)-2-(trifluoromethyl)-1H-benzo[d]imidazole-5-carboxamide]",< 100 nM,< 100 nM
"CCS(=O)(=O)c1ccc(C(O)C(=O)Nc2ccc3c(c2)nc(C(F)(F)F)n3Cc2cccc3c2OC(F)(F)O3)cc1 (centres unmarked) [I-170, N-(1-((2,2-difluorobenzo[d][1,3]dioxol-4-yl)methyl)-2-(trifluoromethyl)-1H-benzo[d]imidazol-5-yl)-2-(4-(ethylsulfonyl)phenyl)-2-hydroxyacetamide]",< 100 nM,< 100 nM
"CCS(=O)(=O)c1ccc(CNC(=O)c2ccc3c(c2)nc(C(F)(F)F)n3Cc2cccc3c2CCO3)cc1 [I-172, 1-((2,3-dihydrobenzofuran-4-yl)methyl)-N-(4-(ethylsulfonyl)benzyl)-2-(trifluoromethyl)-1H-benzo[d]imidazole-5-carboxamide]",< 100 nM,< 100 nM
"CCS(=O)(=O)c1ccc(CNC(=O)c2ccc3c(c2)nc(C(=O)OC)n3Cc2cccc3c2OC(F)(F)O3)cc1 [I-173, methyl 1-((2,2-difluorobenzo[d][1,3]dioxol-4-yl)methyl)-5-((4-(ethylsulfonyl)benzyl)carbamoyl)-1H-benzo[d]imidazole-2-carboxylate]",< 100 nM,100 to 1000 nM
(R)-1-(1-(3-cyanophenyl)ethyl)-N-(4-(ethylsulfonyl)benzyl)-2-(trifluoromethyl)-1H-benzo[d]imidazole-5-carboxamide [I-93.2],< 100 nM,< 100 nM
